Assay results taken from PubChem BioAssay AID2060611 (Molecular Pharmacology Branch, DTP, NCI, 2025).

Test system: 628569-122-R-J1-PDC complex spheroid viability
Test: Anticancer human tumor 628569-122-R-J1-PDC patient-derived head and neck squamous carcinoma cell line growth inhibition [CLK]
Settings: for IC50: curve of first compound; for viability, T/C: stronger effect = lower value
How it was run: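 Patient-derived tumor cells grown as complex spheroids with HUVEC endothelial cells and mesenchymal stem cells, treated with drug combinations. Concentrations descend in half-log steps from near clinical Cmax, or from 10 microM if Cmax unknown.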
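Note: spheroids exposed to agents for seven days before readout.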
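Throughout, for viability, T/C: 100% = DMSO vehicle control viability.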

CC1COCCN1c1cc(C2(S(C)(=N)=O)CC2)nc(-c2ccnc3[nH]ccc23)n1 (centres undefined) + CNC(=O)c1ccc(Nc2nc(OC3CCCC3)c3c(-c4ccc5nc(C)oc5c4)c[nH]c3n2)c(OC)c1 was tested, and the IC50 (second compound 0.0316 µM) was 930 nM, the IC50 (second compound 0.1 µM) was 2970 nM and the IC50 (second compound 0.316 µM) was 1380 nM. It also gave an IC50 (second compound 1 µM) of less than 31.6 nM, an IC50 (second compound 3.16 µM) of less than 31.6 nM and an IC50 (second compound 10 µM) of less than 31.6 nM. For the same compound, the viability, T/C (second compound 0.0316 µM, first compound 0.0316 µM) was 103%, the viability, T/C (second compound 0.0316 µM, first compound 0.1 µM) was 100% and the viability, T/C (second compound 0.0316 µM, first compound 0.316 µM) was 67.5%. For the same compound, the viability, T/C (second compound 0.0316 µM, first compound 1 µM) was 51.4%, the viability, T/C (second compound 0.0316 µM, first compound 3.16 µM) was 45% and the viability, T/C (second compound 0.0316 µM, first compound 10 µM) was 35.3%. The viability, T/C (second compound 0.1 µM, first compound 0.0316 µM) was 66.2%, the viability, T/C (second compound 0.1 µM, first compound 0.1 µM) was 58.3% and the viability, T/C (second compound 0.1 µM, first compound 0.316 µM) was 56.1%. For the same compound, the viability, T/C (second compound 0.1 µM, first compound 1 µM) was 54.5%, the viability, T/C (second compound 0.1 µM, first compound 3.16 µM) was 54% and the viability, T/C (second compound 0.1 µM, first compound 10 µM) was 40%. It also gave a viability, T/C (second compound 0.316 µM, first compound 0.0316 µM) of 45%, a viability, T/C (second compound 0.316 µM, first compound 0.1 µM) of 64.8% and a viability, T/C (second compound 0.316 µM, first compound 0.316 µM) of 50.9%. For the same compound, the viability, T/C (second compound 0.316 µM, first compound 1 µM) was 52.3%, the viability, T/C (second compound 0.316 µM, first compound 3.16 µM) was 44.7% and the viability, T/C (second compound 0.316 µM, first compound 10 µM) was 35.6%. It also gave a viability, T/C (second compound 1 µM, first compound 0.0316 µM) of 45.1%, a viability, T/C (second compound 1 µM, first compound 0.1 µM) of 46.2% and a viability, T/C (second compound 1 µM, first compound 0.316 µM) of 40.4%. The viability, T/C (second compound 1 µM, first compound 1 µM) was 38.3%, the viability, T/C (second compound 1 µM, first compound 3.16 µM) was 41.8% and the viability, T/C (second compound 1 µM, first compound 10 µM) was 33.8%. It also gave a viability, T/C (second compound 3.16 µM, first compound 0.0316 µM) of 44.1%, a viability, T/C (second compound 3.16 µM, first compound 0.1 µM) of 55.3% and a viability, T/C (second compound 3.16 µM, first compound 0.316 µM) of 47.2%. The viability, T/C (second compound 3.16 µM, first compound 1 µM) was 37.7%, the viability, T/C (second compound 3.16 µM, first compound 3.16 µM) was 36.7% and the viability, T/C (second compound 3.16 µM, first compound 10 µM) was 32%. For the same compound, the viability, T/C (second compound 10 µM, first compound 0.0316 µM) was 44.2%, the viability, T/C (second compound 10 µM, first compound 0.1 µM) was 43.7% and the viability, T/C (second compound 10 µM, first compound 0.316 µM) was 39.7%. It also gave a viability, T/C (second compound 10 µM, first compound 1 µM) of 40.4%, a viability, T/C (second compound 10 µM, first compound 3.16 µM) of 39% and a viability, T/C (second compound 10 µM, first compound 10 µM) of 29.4%.

Compound NC(=O)C(=Cn1cnc(-c2cc(C(F)(F)F)cc(C(F)(F)F)c2)n1)c1cncnc1 + CNC(=O)c1ccc(Nc2nc(OC3CCCC3)c3c(-c4ccc5nc(C)oc5c4)c[nH]c3n2)c(OC)c1 has an IC50 (second compound 0.0316 µM) of 681 nM, an IC50 (second compound 0.1 µM) of 137 nM and an IC50 (second compound 0.316 µM) of less than 9.49 nM. For the same compound, the IC50 (second compound 1 µM) was less than 9.49 nM, the IC50 (second compound 3.16 µM) was less than 9.49 nM and the IC50 (second compound 10 µM) was less than 9.49 nM. The viability, T/C (second compound 0.0316 µM, first compound 0.00949 µM) was 75.8%, the viability, T/C (second compound 0.0316 µM, first compound 0.03 µM) was 61.6% and the viability, T/C (second compound 0.0316 µM, first compound 0.0949 µM) was 69.8%. It also gave a viability, T/C (second compound 0.0316 µM, first compound 0.3 µM) of 52%, a viability, T/C (second compound 0.0316 µM, first compound 0.949 µM) of 50.8% and a viability, T/C (second compound 0.0316 µM, first compound 3 µM) of 35.6%. The viability, T/C (second compound 0.1 µM, first compound 0.00949 µM) was 52.4%, the viability, T/C (second compound 0.1 µM, first compound 0.03 µM) was 53.9% and the viability, T/C (second compound 0.1 µM, first compound 0.0949 µM) was 50.5%. It also gave a viability, T/C (second compound 0.1 µM, first compound 0.3 µM) of 47.5%, a viability, T/C (second compound 0.1 µM, first compound 0.949 µM) of 39.5% and a viability, T/C (second compound 0.1 µM, first compound 3 µM) of 32.4%. The viability, T/C (second compound 0.316 µM, first compound 0.00949 µM) was 47.1%, the viability, T/C (second compound 0.316 µM, first compound 0.03 µM) was 51.7% and the viability, T/C (second compound 0.316 µM, first compound 0.0949 µM) was 44.1%. The viability, T/C (second compound 0.316 µM, first compound 0.3 µM) was 42.5%, the viability, T/C (second compound 0.316 µM, first compound 0.949 µM) was 35.9% and the viability, T/C (second compound 0.316 µM, first compound 3 µM) was 33.8%. It also gave a viability, T/C (second compound 1 µM, first compound 0.00949 µM) of 40.7%, a viability, T/C (second compound 1 µM, first compound 0.03 µM) of 45.9% and a viability, T/C (second compound 1 µM, first compound 0.0949 µM) of 31.9%. The viability, T/C (second compound 1 µM, first compound 0.3 µM) was 29.5%, the viability, T/C (second compound 1 µM, first compound 0.949 µM) was 26.2% and the viability, T/C (second compound 1 µM, first compound 3 µM) was 25.7%. The viability, T/C (second compound 3.16 µM, first compound 0.00949 µM) was 36.9%, the viability, T/C (second compound 3.16 µM, first compound 0.03 µM) was 41.2% and the viability, T/C (second compound 3.16 µM, first compound 0.0949 µM) was 28.7%. It also gave a viability, T/C (second compound 3.16 µM, first compound 0.3 µM) of 25.5%, a viability, T/C (second compound 3.16 µM, first compound 0.949 µM) of 15.9% and a viability, T/C (second compound 3.16 µM, first compound 3 µM) of 12.3%. It also gave a viability, T/C (second compound 10 µM, first compound 0.00949 µM) of 38.6%, a viability, T/C (second compound 10 µM, first compound 0.03 µM) of 33.7% and a viability, T/C (second compound 10 µM, first compound 0.0949 µM) of 30.7%. For the same compound, the viability, T/C (second compound 10 µM, first compound 0.3 µM) was 21.4%, the viability, T/C (second compound 10 µM, first compound 0.949 µM) was 17.7% and the viability, T/C (second compound 10 µM, first compound 3 µM) was 13.7%.
